In patent publication US20100137144A1, “METHOD AND MEANS FOR DETECTING AND/OR QUANTIFYING HIERARCHICAL MOLECULAR CHANGE OF A CELL IN RESPONSE TO AN EXTERNAL STIMULUS” (Eppendorf Array Technologies S.A., priority 2005, published 2010):
“Also recorded” adds a separate entry of the source.

Key:
[1] = system: AP1 (c-Jun), STAT1, Elk-1, p53, c-Myc, ATF2, NFATc1 and MEF2 in U937 cells; assay: TF Chip MAPK microarray: activated transcription factors in stimulated U937 cells; assay type: cell-based, human; conditions: 1000 U/ml
Description: They are stimulated at 10.10^6 cells/75 cm^2 flask with IFNγ (1000 U/ml) for 15 min and 24 h or left untreated.
The activation of transcription factors is monitored on microarrays using the TF Chip MAPK kit from Eppendorf (Germany). The arrays contain double stranded DNA molecules as capture probes for the TF binding. The TF Chip MAPK allows the assay of AP1 (c-Jun), STAT1, Elk-1, p53, c-Myc, ATF2, NFATc1 and MEF2.
A blocking step is performed in a Blocking Solution (TF Chip MAPK kit, Eppendorf, Germany) for 1 h at RT, followed by a washing step using the Washing Buffer A (TF Chip MAPK kit, Eppendorf, Germany). The nuclear extracts are prepared as described in WO 01/73115. They are diluted in the Sample Dilution Solution and Binding Solution (TF Chip MAPK kit, Eppendorf, Germany) and contacted with the arrays. Incubation is performed for one hour at room temperature and under agitation at 600 rpm. Samples are removed and microarrays are washed 3 times.
A mix of primary antibodies (Primary Antibody Cocktail; TF Chip MAPK kit, Eppendorf, Germany), each specifically recognizing the activated form of a transcription factor to be detected and diluted in the Primary Antibody Solution (TF Chip MAPK kit, Eppendorf, Germany), is contacted with the microarrays for 1 h at RT, followed by 3 washing steps. Each microarray is then contacted with Cy3-labeled secondary antibodies under indirect light for 45 min at RT, followed by washing.
Hybridization chambers are removed, and slides are rinsed with Washing Buffer B (TF Chip MAPK kit, Eppendorf, Germany) and dried. A fluorescence detection of signals is performed by scanning slides using a laser confocal scanner “ScanArray” (Packard, USA) at a resolution of 10 μm. Signals are analyzed using the TF Chip MAPK Data analysis software.
The experiment was performed as described in example 1 with the cells being stimulated for 15 min and 24 h with IFNγ or IFNα at the same concentration (1000 U/ml).
The assays were performed on the TF Chip MAPK kit and on the DualChip® human RNAi side effect (Eppendorf, Germany) as in example 1. Table 2 presents the ratios for the genes whose values were found quantitative as explained in example 1. However, we investigated further the genes which were found positive for the IFNα response. For these genes, we incorporated into the table the values for the genes determined as quantitative for IFNγ but also the values for two genes, SERPINB2 and IFIT2, which were found qualitative, and the values for 4 other genes for which the ratios were significant when a confidence interval of 90% rather than the normal 95% is considered. These values are presented for sake of completing the information on the comparison between the two treatments and are marked with an asterisk.

U937 cells = assay: DualChip human RNAi side effect microarray: gene expression in stimulated U937 cells; assay type: cell-based; conditions: for Number of genes exclusively regulated by this interferon: from 89 significant genes
Description: The DualChip® human RNAi side effect (Eppendorf, Germany) was used for assay of the changes in the gene expression.
The microarray contains, in triplicates, capture probes to analyze the expression of 260 human genes. In order to evaluate the entire experiment, several positive and negative controls (for hybridization and detection) as well as special capture probes for normalization are included. The DualChip® consists of two microarrays on one slide that has already been framed with a hybridization frame.
The instructions provided by the supplier were followed for the hybridization and the analysis of the results.

[2] = system: AP1 (c-Jun), STAT1, Elk-1, p53, c-Myc, ATF2, NFATc1 and MEF2 in MCF7 cells; assay: TF Chip MAPK microarray: activated transcription factors in stimulated MCF7 cells; assay type: cell-based, human
MCF7 cells = assay: DualChip human breast cancer microarray: gene expression in stimulated MCF7 cells; assay type: cell-based; conditions: 24 h; for Number of genes whose expression level is modified: out of 210

For IFNα, the “Activation of transcription factor STAT1” value ([1]; 15 min, vs unstimulated cells) was “the only TF showing a specific signal in the treated cells” and the “Number of genes exclusively regulated by this interferon” value (U937 cells; 24 h, 1000 U/ml) was 6 genes.

For hydrogen peroxide [H2O2], the “Activation state of c-Jun, Elk-1 and STAT1” value ([2]; MCF7 cells, 200 μM) was “did not highlight any modification in the activation state”, the “Activation of ATF2, c-Myc, MEF2 and NFATc1” value ([2]; MCF7 cells, 200 μM, 3 h) was “suppressed” and the “Activation of transcription factor p53” value ([2]; MCF7 cells, 200 μM, 3 h and 24 h) was “activation of p53”. For the same molecule, the “Activation of ATF2, c-Myc, MEF2 and NFATc1” value ([2]; MCF7 cells, 200 μM, 24 h) was “restored to a basal level”, the “Regulation of genes p53, bcl-x and thrombospondin-1” value (MCF7 cells; 200 μM) was “not shown experimentally to be regulated” and the “Number of apoptotic pathway genes affected (BAG and BAX)” value (MCF7 cells; 200 μM, of 9 on the array) was 2 genes. For the same molecule, the “Number of genes whose expression level is modified” value (MCF7 cells; 200 μM) was 16 genes, the “Expression ratio, gene BAG-1” value (MCF7 cells; 200 μM, vs untreated cells) was 1.65 and the “Expression ratio, gene BAX” value (MCF7 cells; 200 μM, vs untreated cells) was 1.86. For the same molecule, the “Expression ratio, gene CTSD” value (MCF7 cells; 200 μM, vs untreated cells) was 1.65, the “Expression ratio, gene FOXM1” value (MCF7 cells; 200 μM, vs untreated cells) was 0.55 and the “Expression ratio, gene K-alpha-1” value (MCF7 cells; 200 μM, vs untreated cells) was 0.63. For the same molecule, the “Expression ratio, gene MCM7” value (MCF7 cells; 200 μM, vs untreated cells) was 0.57, the “Expression ratio, gene MDM2” value (MCF7 cells; 200 μM, vs untreated cells) was 1.73 and the “Expression ratio, gene MKi67” value (MCF7 cells; 200 μM, vs untreated cells) was 0.56. For the same molecule, the “Expression ratio, gene MYBL2” value (MCF7 cells; 200 μM, vs untreated cells) was 0.53, the “Expression ratio, gene Muc1” value (MCF7 cells; 200 μM, vs untreated cells) was 1.64 and the “Expression ratio, gene NIFU” value (MCF7 cells; 200 μM, vs untreated cells) was 1.53. The “Expression ratio, gene ODC” value (MCF7 cells; 200 μM, vs untreated cells) was 0.61, the “Expression ratio, gene PPP1CB” value (MCF7 cells; 200 μM, vs untreated cells) was 0.62 and the “Expression ratio, gene STMN1” value (MCF7 cells; 200 μM, vs untreated cells) was 0.54. The “Expression ratio, gene TOB” value (MCF7 cells; 200 μM, vs untreated cells) was 1.63 and the “Expression ratio, gene p21 (CDKN1A)” value (MCF7 cells; 200 μM, vs untreated cells) was 3.26.

`C[C@]12CC[C@@H]3c4ccc(O)cc4CC[C@H]3[C@@H]1CC[C@@H]2O` [β-Estradiol, β-estradiol] was tested, and the “Activation state of c-Jun, ATF2, Elk-1 and STAT1” value ([2]; MCF7 cells, 1 μM) was “did not highlight any modification in the activation state”, the “Activation of c-Myc” value ([2]; MCF7 cells, 1 μM, 24 h, cells confluent) was “reduced” and the “Activation of p53” value ([2]; MCF7 cells, 1 μM, 24 h, cells confluent, possibly not specific to the treatment) was “triggered”. The “Activation of c-Myc” value ([2]; sub-confluent MCF7 cells, 1 μM, 4 h) was “fast activation” and the “Number of genes whose expression level is modified” value (MCF7 cells; 1 μM) was 50 genes.

In the case of “IFNγ: interferon γ, used at 1000 U/ml as stimulus of U937 cells”, the “Activation of transcription factor MEF2” value [1] is reported as “activated in IFNγ stimulated and non stimulated conditions”, the “Activation of transcription factor STAT1” value ([1]; 15 min, vs unstimulated cells) is reported as “specifically activated; also recorded: fast activation; also recorded: the only TF showing a specific signal in the treated cells” and the “Activation of transcription factor STAT1” value ([1]; 24 h) is reported as “disappears after 24 h”. For the same molecule, the “Activation of the 7 other transcription factors (AP1 (c-Jun), Elk-1, p53, c-Myc, ATF2, NFATc1, MEF2)” value ([1]; vs unstimulated cells) was “None of the 7 other ones (AP1 (c-Jun), Elk-1, p53, c-Myc, ATF2, NFATc1 and MEF2) were activated”, the “Number of genes affected at the two stimulation times” value (U937 cells; 15 min and 24 h) was “Five” and the “Differential expression of genes BAX and BCLX” value (U937 cells; 1000 U/ml) was “not found to be differentially expressed”. The “Number of genes whose expression level varies significantly” value (U937 cells; 1000 U/ml, 15 min and 24 h, quantitative analysis, 260 genes on array) was 81 genes, the “Expression level of gene FOS” value (U937 cells; 1000 U/ml, 24 h) was “returned to a basal level” and the “Number of genes exclusively regulated by this interferon” value (U937 cells; 24 h, 1000 U/ml) was 62 genes. For the same molecule, the “Number of genes specifically affected by a 15 min treatment” value (U937 cells; out of 81) was 4 genes and the “Number of genes specifically modified after a 24 h treatment” value (U937 cells; out of 81) was 72 genes.
